Laboratory results taken from patent US20250064789A1, “KETOAMIDE DERIVATIVES AND PHARMACEUTICAL USES THEREOF” (priority 2022, published 2025).

Target: recombinant SARS-CoV-2 M^pro (Severe acute respiratory syndrome coronavirus 2 (2019-nCoV) (SARS-CoV-2), UniProt P0DTD1)
Assay: Inhibition of SARS-CoV-2 M^pro enzyme activity (fluorescent substrate assay)
Format: biochemical
Details: inhibition of SARS-CoV-2 M^pro enzyme activity; values given in μM; read-out: IC50

Structure (SMILES) | IC50 [µM]
O=C(NCc1cscn1)C(=O)[C@@H](Cc1ccccc1)NC(=O)[C@H]1CC(F)(F)CN1C(=O)C1CCCC(F)(F)C1 (stereo partly drawn) [Compound 434] | 2.05 ± 0.02
O=C(NCc1nccs1)C(=O)[C@@H](Cc1ccccc1)NC(=O)c1ccccc1 [Compound 454] | 1.3 ± 0.07
O=C(NCc1cccs1)C(=O)[C@@H](Cc1ccccc1)NC(=O)c1ccccc1 [Compound 455] | 77.3 ± 2.31
O=C(NCc1ccco1)C(=O)[C@@H](Cc1ccccc1)NC(=O)c1ccccc1 [Compound 456] | 37.2 ± 0.51
O=C(NCc1ncco1)C(=O)[C@@H](Cc1ccccc1)NC(=O)c1ccccc1 [Compound 457] | 51.5 ± 0.94
O=C(NCc1cocn1)C(=O)[C@@H](Cc1ccccc1)NC(=O)c1ccccc1 [Compound 458] | 11.4 ± 0.08
O=C(NCc1ccon1)C(=O)[C@@H](Cc1ccccc1)NC(=O)c1ccccc1 [Compound 459] | 54.74 ± 0.35
O=C(NCc1ncon1)C(=O)[C@@H](Cc1ccccc1)NC(=O)c1ccccc1 [Compound 460] | 53.1 ± 3.34
O=C(NCc1ncno1)C(=O)[C@@H](Cc1ccccc1)NC(=O)c1ccccc1 [Compound 461] | 62.3 ± 2.07
Cc1csc(CNC(=O)C(=O)[C@@H](Cc2ccccc2)NC(=O)c2ccccc2)n1 [Compound 462] | 40.7 ± 1.5
O=C(NCc1cnc(Cl)s1)C(=O)[C@@H](Cc1ccccc1)NC(=O)c1ccccc1 [Compound 463] | 95.2 ± 5.99
O=C(NCc1nccs1)C(=O)[C@@H](Cc1ccccc1F)NC(=O)c1ccccc1 [Compound 464] | 3.5 ± 0.23
O=C(NCc1nccs1)C(=O)[C@@H](Cc1cccc(F)c1)NC(=O)c1ccccc1 [Compound 465] | 2.55 ± 0.02
O=C(NCc1nccs1)C(=O)[C@@H](Cc1ccc(F)cc1)NC(=O)c1ccccc1 [Compound 466] | 1.95 ± 0.29
O=C(NCc1nccs1)C(=O)[C@@H](Cc1cc(F)c(F)cc1F)NC(=O)c1ccccc1 [Compound 467] | 3.37 ± 0.18
O=C(NCc1nccs1)C(=O)[C@@H](CC1CCCCC1)NC(=O)c1ccccc1 [Compound 468] | 10.5 ± 0.63
O=C(NCc1nccs1)C(=O)[C@@H](Cc1cccc(Cl)c1)NC(=O)c1ccccc1 [Compound 469] | 1.43 ± 0.15
O=C(NCc1nccs1)C(=O)[C@@H](Cc1ccc(Cl)c(Cl)c1)NC(=O)c1ccccc1 [Compound 470] | 2.03 ± 0.07
O=C(NCc1nccs1)C(=O)[C@@H](Cc1ccccc1)NC(=O)c1ccc(F)cc1 [Compound 473] | 1.31 ± 0.1
O=C(CCc1ccccc1)N[C@H](Cc1ccccc1)C(=O)C(=O)NCc1nccs1 [Compound 475] | 1.22 ± 0.1
O=C(CNC(=O)c1ccccc1)N[C@H](Cc1ccccc1)C(=O)C(=O)NCc1nccs1 [Compound 477] | 1.86 ± 0.04
O=C(CNC(=O)c1cnccn1)N[C@H](Cc1ccccc1)C(=O)C(=O)NCc1nccs1 [Compound 478] | 3.62 ± 0.27
O=C(CNC(=O)c1ccccn1)N[C@H](Cc1ccccc1)C(=O)C(=O)NCc1nccs1 [Compound 479] | 2.24 ± 0.1
O=C(CNC(=O)c1cccnc1)N[C@H](Cc1ccccc1)C(=O)C(=O)NCc1nccs1 [Compound 480] | 2.23 ± 0.37
O=C(NCc1nccs1)C(=O)[C@@H](Cc1ccccc1)NC(=O)c1cnn(Cc2cc(F)c(F)cc2F)c1 [Compound 490] | 5.21 ± 0.72

Same assay, conditions: inhibition of SARS-CoV-2 M^pro enzyme activity; values in nM; read-out: IC50

Structure (SMILES) | IC50 [µM]
O=C(NCc1nccs1)C(=O)[C@@H](Cc1ccccc1)NC(=O)[C@H]1COCCN1C(=O)CC1CCC(F)(F)CC1 [Compound 411] | 0.0155 ± 0.0001
O=C(NCc1nccs1)C(=O)[C@@H](Cc1ccccc1)NC(=O)[C@H]1COCCN1C(=O)[C@@H]1C[C@@H]2[C@H](C1)C2(F)F [Compound 412] | 0.0248 ± 0.0008
O=C(NCc1nccs1)C(=O)[C@@H](Cc1ccccc1)NC(=O)[C@H]1COCCN1C(=O)CC1CC1(F)F (stereo partly drawn) [Compound 413] | 0.0291 ± 0.0025
C[C@@H](NC(=O)N1CCC(F)(F)CC1)C(=O)N[C@H](Cc1ccccc1)C(=O)C(=O)NCc1nccs1 [Compound 414] | 0.0959 ± 0.0097
C[C@@H](NC(=O)C1CCCC(F)(F)C1)C(=O)N[C@H](Cc1ccccc1)C(=O)C(=O)NCc1cscn1 (stereo partly drawn) [Compound 416] | 0.019 ± 0.0004
C[C@@H](NC(=O)CC1CCC(F)(F)CC1)C(=O)N[C@H](Cc1ccccc1)C(=O)C(=O)NCc1cscn1 [Compound 419] | 0.0098 ± 0.0001
C[C@@H](NC(=O)[C@@H]1C[C@@H]2[C@H](C1)C2(F)F)C(=O)N[C@H](Cc1ccccc1)C(=O)C(=O)NCc1cscn1 [Compound 420] | 0.0108 ± 0.0007
O=C(CNC(=O)C1CCC(F)(F)CC1)N[C@H](Cc1ccccc1)C(=O)C(=O)NCc1cscn1 [Compound 421] | 0.0207 ± 0.0005
O=C(CC1CCC(F)(F)CC1)NCC(=O)N[C@H](Cc1ccccc1)C(=O)C(=O)NCc1cscn1 [Compound 422] | 0.0171 ± 0.0001
O=C(CNC(=O)[C@@H]1C[C@@H]2[C@H](C1)C2(F)F)N[C@H](Cc1ccccc1)C(=O)C(=O)NCc1cscn1 [Compound 424] | 0.0207 ± 0.0002
O=C(CC1CC1(F)F)NCC(=O)N[C@H](Cc1ccccc1)C(=O)C(=O)NCc1cscn1 (stereo partly drawn) [Compound 425] | 0.0365 ± 0.0003
O=C(CNC(=O)C1CCCCCC1)N[C@H](Cc1ccccc1)C(=O)C(=O)NCc1cscn1 [Compound 426] | 0.0094 ± 0.0001
O=C(CNC(=O)C1CC2CCC1C2)N[C@H](Cc1ccccc1)C(=O)C(=O)NCc1cscn1 (stereo partly drawn) [Compound 427] | 0.0209 ± 0.0004
O=C(CNC(=O)C1(F)CCCCC1)N[C@H](Cc1ccccc1)C(=O)C(=O)NCc1cscn1 [Compound 428] | 0.0171 ± 0.0001
O=C(CNC(=O)C1CCC(F)(F)C1)N[C@H](Cc1ccccc1)C(=O)C(=O)NCc1cscn1 (stereo partly drawn) [Compound 429] | 0.0338 ± 0.001
O=C(CNC(=O)C1CCCC(F)(F)C1)N[C@H](Cc1ccccc1)C(=O)C(=O)NCc1cscn1 (stereo partly drawn) [Compound 430] | 0.02 ± 0.0005
COC[C@@H](NC(=O)C1CCC(F)(F)CC1)C(=O)N[C@H](Cc1ccccc1)C(=O)C(=O)NCc1cscn1 [Compound 431] | 0.2337 ± 0.0018
COC[C@@H](NC(=O)CC1CCC(F)(F)CC1)C(=O)N[C@H](Cc1ccccc1)C(=O)C(=O)NCc1cscn1 [Compound 432] | 0.0115 ± 0.0001
O=C(NCc1cscn1)C(=O)[C@@H](Cc1ccccc1)NC(=O)[C@H]1CC(F)(F)CN1C(=O)C1CCC(F)(F)CC1 [Compound 433] | 0.7496 ± 0.0011
O=C(NCc1cscn1)C(=O)[C@@H](Cc1ccccc1)NC(=O)[C@H]1COCCN1C(=O)CC1CC1(F)F (stereo partly drawn) [Compound 435] | 0.0582 ± 0.0013
O=C(NCc1cscn1)C(=O)[C@@H](Cc1ccccc1)NC(=O)[C@H]1COCCN1C(=O)CC1CC(F)(F)C1 [Compound 436] | 0.171 ± 0.0024
O=C(NCc1cscn1)C(=O)[C@@H](Cc1ccccc1)NC(=O)[C@H]1COCCN1C(=O)C1CCC(F)(F)C1 (stereo partly drawn) [Compound 437] | 0.0611 ± 0.0012
O=C(NCc1cscn1)C(=O)[C@@H](Cc1ccccc1)NC(=O)[C@H]1COCCN1C(=O)C1CCC(F)(F)CC1 [Compound 438] | 0.0234 ± 0.0018
O=C(CNC(=O)c1ccc(Cl)cc1)N[C@H](Cc1ccccc1)C(=O)C(=O)NCc1ccccn1 [Compound 439] | 0.0462 ± 0.0003

Structure (SMILES) | IC50 [µM]
O=C(CNC(=O)c1ccc(Cl)c(Cl)c1)N[C@H](Cc1ccccc1)C(=O)C(=O)NCc1ccccn1 [Compound 440] | 0.0204 ± 0.0004
O=C(CNC(=O)c1ccc(F)c(Cl)c1)N[C@H](Cc1ccccc1)C(=O)C(=O)NCc1ccccn1 [Compound 441] | 0.0185 ± 0.0003
N#Cc1cc(F)cc(C(=O)NCC(=O)N[C@H](Cc2ccccc2)C(=O)C(=O)NCc2ccccn2)c1 [Compound 442] | 0.0206 ± 0.001
N#Cc1ccc(C(=O)NCC(=O)N[C@H](Cc2ccccc2)C(=O)C(=O)NCc2ccccn2)cc1F [Compound 443] | 0.168 ± 0.0019
O=C(CNC(=O)c1cc2ccccc2o1)N[C@H](Cc1ccccc1)C(=O)C(=O)NCc1ccccn1 [Compound 444] | 0.2143 ± 0.0012
O=C(CNC(=O)C1CCCCC1)N[C@H](Cc1ccccc1)C(=O)C(=O)NCc1ccccn1 [Compound 445] | 0.0218 ± 0.0003
O=C(CNC(=O)C1CCOCC1)N[C@H](Cc1ccccc1)C(=O)C(=O)NCc1ccccn1 [Compound 446] | 0.4141 ± 0.0018
O=C(CNC(=O)C1CCC(F)(F)CC1)N[C@H](Cc1ccc(Cl)cc1)C(=O)C(=O)NCc1ccccn1 [Compound 447] | 0.1873 ± 0.0011
O=C(CNC(=O)C1CCC(F)(F)CC1)N[C@H](Cc1cccc(Cl)c1)C(=O)C(=O)NCc1ccccn1 [Compound 448] | 0.0599 ± 0.0005
O=C(CNC(=O)C1CCC(F)(F)CC1)N[C@H](Cc1ccccc1Cl)C(=O)C(=O)NCc1ccccn1 [Compound 449] | 0.0453 ± 0.0012
O=C(CNC(=O)C1CCC(F)(F)CC1)N[C@H](Cc1ccc(Cl)cc1Cl)C(=O)C(=O)NCc1ccccn1 [Compound 450] | 0.0454 ± 0.0002
O=C(CNC(=O)C1CCC(F)(F)CC1)N[C@H](Cc1ccc(Cl)cc1Cl)C(=O)C(=O)NCc1ccccn1 [Compound 451] | 0.0344 ± 0.0018
C[C@H](NC(=O)C1CCC(F)(F)CC1)C(=O)N[C@H](Cc1ccccc1)C(=O)C(=O)NCc1ccccn1 [Compound 452] | 0.0662 ± 0.0009
O=C(NCc1ccccn1)C(=O)[C@@H](Cc1ccccc1)NC(=O)[C@@H]1CC(F)(F)CN1C(=O)[C@@H]1C[C@@H]2[C@H](C1)C2(F)F [Compound 453] | 0.0372 ± 0.0002
O=C(NCc1nccs1)C(=O)[C@@H](Cc1ccccc1)NC(=O)c1ccccc1F [Compound 471] | 0.264 ± 0.004
O=C(NCc1nccs1)C(=O)[C@@H](Cc1ccccc1)NC(=O)c1cccc(F)c1 [Compound 472] | 0.478 ± 0.0048
O=C(Cc1ccccc1)N[C@H](Cc1ccccc1)C(=O)C(=O)NCc1nccs1 [Compound 474] | 0.949 ± 0.0399
O=C(COc1ccccc1)N[C@H](Cc1ccccc1)C(=O)C(=O)NCc1nccs1 [Compound 476] | 0.8808 ± 0.0012
O=C(CNC(=O)c1ccccc1F)N[C@H](Cc1ccccc1)C(=O)C(=O)NCc1nccs1 [Compound 481] | 0.9983 ± 0.0002
O=C(CNC(=O)c1cccc(F)c1)N[C@H](Cc1ccccc1)C(=O)C(=O)NCc1nccs1 [Compound 482] | 0.5382 ± 0.0043
O=C(CNC(=O)c1ccc(F)cc1)N[C@H](Cc1ccccc1)C(=O)C(=O)NCc1nccs1 [Compound 483] | 0.3384 ± 0.003
CC(C)(OCc1ccc(F)cc1)C(=O)N[C@H](Cc1ccccc1)C(=O)C(=O)NCc1nccs1 [Compound 484] | 0.0957 ± 0.0015
CC(C)(OCc1ccc(Cl)cc1)C(=O)N[C@H](Cc1ccccc1)C(=O)C(=O)NCc1nccs1 [Compound 485] | 0.0333 ± 0.0017
